Test results taken from patent publication US11274090B2, “P300/CBP HAT inhibitors” (Constellation Pharmaceuticals, Inc., priority 2018, dated 2022).

Key:
[1] = biological target: p300 HAT domain (residues 1287-1666) (Homo sapiens (Human), UniProt Q09472); assay: p300 HAT SPA assay (scintillation proximity assay, acetylation of biotinylated H3(1-21) peptide); assay type: biochemical; details: average of at least 2 replicate titrations
Procedure, shortened: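 Scintillation proximity readout of acetylated biotin-H3(1-21) captured on streptavidin plates after 1.5 hr at RT; enzyme was Ni2+/anion-exchange-purified HAT domain in 20 mM Hepes pH 7.5. Inhibitor IC50s calculated from the data.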

[2] = biological target: full length p300 (Homo sapiens (Human), UniProt Q09472); assay: full length p300 SPA assay; assay type: biochemical; details: average of at least 2 replicate titrations, read-out: FL P300 IC50
full length p300, sequence (Q09472 whole entry): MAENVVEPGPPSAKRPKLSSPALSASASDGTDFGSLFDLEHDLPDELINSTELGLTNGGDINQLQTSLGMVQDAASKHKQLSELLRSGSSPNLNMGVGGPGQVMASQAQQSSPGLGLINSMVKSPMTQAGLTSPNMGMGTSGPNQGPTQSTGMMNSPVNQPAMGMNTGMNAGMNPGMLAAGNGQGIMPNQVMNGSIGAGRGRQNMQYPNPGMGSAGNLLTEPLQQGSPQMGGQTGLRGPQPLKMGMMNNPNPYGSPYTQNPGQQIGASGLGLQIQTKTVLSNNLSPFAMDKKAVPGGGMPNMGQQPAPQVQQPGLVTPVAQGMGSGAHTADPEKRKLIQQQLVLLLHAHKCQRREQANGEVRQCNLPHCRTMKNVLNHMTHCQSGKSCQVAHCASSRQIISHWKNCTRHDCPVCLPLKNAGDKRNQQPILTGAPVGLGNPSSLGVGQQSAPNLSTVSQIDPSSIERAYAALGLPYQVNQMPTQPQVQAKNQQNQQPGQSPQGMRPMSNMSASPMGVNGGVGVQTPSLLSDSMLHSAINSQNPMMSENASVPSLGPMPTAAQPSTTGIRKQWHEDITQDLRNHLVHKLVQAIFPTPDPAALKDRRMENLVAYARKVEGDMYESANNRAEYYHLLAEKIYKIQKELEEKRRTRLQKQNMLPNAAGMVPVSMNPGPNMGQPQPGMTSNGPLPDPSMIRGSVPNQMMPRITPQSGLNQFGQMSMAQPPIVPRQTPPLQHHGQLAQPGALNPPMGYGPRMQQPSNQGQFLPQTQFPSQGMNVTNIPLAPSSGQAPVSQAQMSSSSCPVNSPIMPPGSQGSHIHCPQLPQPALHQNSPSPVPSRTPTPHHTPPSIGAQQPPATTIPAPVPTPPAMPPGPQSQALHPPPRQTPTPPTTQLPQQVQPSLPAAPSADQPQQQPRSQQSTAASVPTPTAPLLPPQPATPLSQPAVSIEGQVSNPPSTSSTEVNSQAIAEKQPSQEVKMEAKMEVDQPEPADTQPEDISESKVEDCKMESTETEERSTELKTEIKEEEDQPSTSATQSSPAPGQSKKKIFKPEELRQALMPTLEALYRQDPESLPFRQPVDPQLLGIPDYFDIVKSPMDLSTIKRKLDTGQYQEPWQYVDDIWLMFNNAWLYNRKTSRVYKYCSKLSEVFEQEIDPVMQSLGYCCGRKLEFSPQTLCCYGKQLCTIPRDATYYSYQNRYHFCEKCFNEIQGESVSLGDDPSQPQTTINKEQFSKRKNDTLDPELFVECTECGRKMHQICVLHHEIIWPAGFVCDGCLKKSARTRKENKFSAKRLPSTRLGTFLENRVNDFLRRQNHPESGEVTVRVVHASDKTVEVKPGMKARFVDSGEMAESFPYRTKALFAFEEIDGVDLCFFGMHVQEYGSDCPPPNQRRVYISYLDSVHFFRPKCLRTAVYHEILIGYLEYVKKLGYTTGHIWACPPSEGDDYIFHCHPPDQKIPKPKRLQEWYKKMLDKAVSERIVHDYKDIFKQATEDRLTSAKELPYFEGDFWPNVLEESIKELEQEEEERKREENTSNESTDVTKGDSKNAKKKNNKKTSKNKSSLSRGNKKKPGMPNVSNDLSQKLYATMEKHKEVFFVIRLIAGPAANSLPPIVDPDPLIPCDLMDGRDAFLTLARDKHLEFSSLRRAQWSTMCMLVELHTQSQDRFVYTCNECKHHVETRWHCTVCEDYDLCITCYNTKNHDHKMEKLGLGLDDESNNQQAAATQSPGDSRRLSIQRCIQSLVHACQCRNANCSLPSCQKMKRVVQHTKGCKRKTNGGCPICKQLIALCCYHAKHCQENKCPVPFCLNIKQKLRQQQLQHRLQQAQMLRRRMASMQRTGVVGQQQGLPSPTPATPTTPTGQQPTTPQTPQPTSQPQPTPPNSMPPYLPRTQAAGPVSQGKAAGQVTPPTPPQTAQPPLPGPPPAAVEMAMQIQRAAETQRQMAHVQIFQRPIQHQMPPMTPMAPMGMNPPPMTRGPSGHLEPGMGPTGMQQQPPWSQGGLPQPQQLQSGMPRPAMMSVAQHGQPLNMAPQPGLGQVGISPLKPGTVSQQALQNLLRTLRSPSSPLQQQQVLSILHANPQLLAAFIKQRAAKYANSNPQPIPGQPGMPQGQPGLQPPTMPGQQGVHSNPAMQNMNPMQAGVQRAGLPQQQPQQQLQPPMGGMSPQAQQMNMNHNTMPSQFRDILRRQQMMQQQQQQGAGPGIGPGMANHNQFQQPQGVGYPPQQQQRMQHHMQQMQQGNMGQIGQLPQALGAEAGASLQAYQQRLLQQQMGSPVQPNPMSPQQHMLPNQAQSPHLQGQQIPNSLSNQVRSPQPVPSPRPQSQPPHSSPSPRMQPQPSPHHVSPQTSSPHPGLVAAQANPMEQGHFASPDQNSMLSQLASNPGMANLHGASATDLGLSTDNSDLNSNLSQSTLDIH
Procedure: Reactions were initiated with 12.5 μL 2 μM biotinylated H3(1-21) peptide (New England Peptide) and run for 1 hr at RT, then quenched with 20 μL stop solution (200 mM Tris pH 8.0, 200 mM EDTA, 2M NaCl, 160 μM anacardic acid). 35 μL of the reaction volume was transferred to a 384-well streptavidin FlashPlate (PerkinElmer) using a Bravo liquid handler (Velocity 11) and incubated for 1.5 hr at RT. Plates were aspirated, washed with 95 μL wash buffer (15 mM Tris pH 8.5, 0.069 μM Brij-35), aspirated, sealed, and scintillation counts read on a Topcount (PerkinElmer). Data were analyzed in Genedata to determine inhibitor IC50 values.
The full length p300 SPA assay was run following the same protocol as p300 HAT SPA assay, but used 6 nM purified full length p300 (purchased from Active Motif) in place of the purified p300-HAT domain.

[3] = tested on: acetylation of chromatin at H3K18 (p300 and CBP) in HCT-116 cells; assay: H3K18Ac MSD cellular assay; assay type: cell-based; details: 2 hr treatment
Procedure: Select compounds were also evaluated in a H3K18Ac MSD cellular assay that measures the ability of compounds to inhibit the acetylation of chromatin at H3K18, a process catalyzed by p300 and CBP. In a typical experiment the p300 HAT inhibitory activity inside cells of the compounds described herein was determined in accordance with the following experimental method. 20 k HCT-116 cells per well are plated in 75 μL RPMI+10% FBS media the night before treatment. Compounds plated in DMSO at 4× final concentration are resuspended in 30 μL RPMI+10% FBS, then 25 μL is combined with corresponding wells containing cells. Treated cells are incubated for 2 hr at 37° C., then lysed in 500 μL final volume and frozen at −80° C. MSD plates (Meso Scale Discovery) are coated overnight at 4° C. with 60 μL 1:500 α-total histone antibody (Millipore MAB3422) in PBS. Plates are then blocked with 5% BSA in TBST shaking at RT for 1 hr, washed, and 30 μL lysate added to each well for 2 hr shaking at RT. Plates are washed and 25 μL 1:216 α-H3K18ac antibody (CST 9675) in PBS added, then incubated for 1 hr shaking at RT. Plates are washed again, then 25 μL 1:1000 Sulfo-Tag goat α-rabbit antibody (Meso Scale Discovery R32Ab-1) in PBS is added for 1 hr shaking at RT. Plates are washed once more, then 150 μL 1× Read Buffer (MSD #R92TD-3) is added to all wells and read on MSD SECTOR Imager 2400 using the conventional read setup.

p300 HAT domain (residues 1287-1666), sequence (Q09472 1287-1666): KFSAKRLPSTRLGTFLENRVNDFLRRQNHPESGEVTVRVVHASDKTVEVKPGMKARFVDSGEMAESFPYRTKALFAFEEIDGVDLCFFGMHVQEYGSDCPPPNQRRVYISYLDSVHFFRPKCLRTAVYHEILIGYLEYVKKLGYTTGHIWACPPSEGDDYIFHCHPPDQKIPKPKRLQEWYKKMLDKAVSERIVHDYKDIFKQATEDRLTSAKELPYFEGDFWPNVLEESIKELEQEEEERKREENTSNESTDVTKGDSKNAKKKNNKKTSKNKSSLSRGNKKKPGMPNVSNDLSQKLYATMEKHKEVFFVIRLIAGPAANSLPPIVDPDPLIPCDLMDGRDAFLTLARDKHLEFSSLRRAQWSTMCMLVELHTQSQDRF

Compound	IC50 [1] [nM]	IC50 [2] [nM]	EC50 ([3]; Homo sapiens, HCT-116, 2 h) [nM]	EC50 ([3]; Homo sapiens) [nM]	EC50 [3] [nM]
Cn1cc(-c2ccc(NC(=O)[C@@H](NCCc3ccc(C#N)cc3)c3ccccc3)cc2)cn1 (single isomer, unassigned) [1 Isomer 2]	130	4	107	–	–
CC(CNC(C(=O)Nc1ccc(-c2cnn(C)c2)cc1)c1ccccc1)c1ccc(Cl)cc1 (single isomer, unassigned) [2 Isomer 2]	119	–	–	324	–
Cn1cc(-c2ccc(NC(=O)[C@@H](NCCc3ccc(Cl)cc3)c3ccccc3)cc2)cn1 (single isomer, unassigned) [5 Isomer 1]	239	9	–	59	–
N#Cc1ccc(CCNC(C(=O)Nc2ccc(-c3cccnn3)cc2)c2ccccc2)cc1 (single isomer, unassigned) [12 Isomer 2]	479	–	–	1800	–
Cn1cnc(-c2ccc(NC(=O)C(NCCc3ccc(C#N)cc3)c3ccccc3)nc2)c1 (single isomer, unassigned) [13 Isomer 2]	66	< 2	–	92.3	–
Cn1ccc(-c2ccc(NC(=O)C(NCCc3ccc(C#N)cc3)c3ccccc3)nc2)n1 (single isomer, unassigned) [14 Isomer 2]	191	–	–	479	–
Cc1cn(-c2ccc(NC(=O)[C@@H](NCCc3ccc(Cl)cc3)c3ccccc3)cc2)cn1 (single isomer, unassigned) [16 Isomer 1]	614	–	–	1130	–
CN1CCN(c2ccc(NC(=O)[C@@H](NCCc3ccc(Cl)cc3)c3ccccc3)cc2)CC1 (single isomer, unassigned) [17 Isomer 1]	655	–	–	998	–
Cn1cc(-c2ccc(NC(=O)C(NCCc3ccc(C#N)cc3)c3ccccc3)nc2)cn1 (single isomer, unassigned) [22 Isomer 1]	–	–	–	–	24.6
Cn1cc(-c2ccc(NC(=O)C(NCCc3ccc(C#N)cc3)c3ccccc3)nc2)cn1 (single isomer, unassigned) [22 Isomer 2]	–	–	–	–	66.8
Cn1cc(-c2ccc(NC(=O)C(NCCc3ccc(C#N)cc3)c3ccccc3)c(Cl)c2)cn1 (single isomer, unassigned) [26 Isomer 1]	88.9	3	–	265	–
Cn1cc(-c2ccc(NC(=O)C(NCCc3ccc(C#N)cc3)c3ccccc3)cc2Cl)cn1 (single isomer, unassigned) [27 Isomer 1]	576	–	–	2020	–
Cc1cn(-c2ccc(NC(=O)C(NCCc3ccc(C#N)cc3)c3ccccc3)nc2)cn1 (single isomer, unassigned) [28 Isomer 1]	46	< 2	–	59.6	–
N#Cc1ccc(CCNC(C(=O)Nc2ccc(N3CCCC3)cn2)c2ccccc2)cc1 (single isomer, unassigned) [37 Isomer 1]	65.4	–	–	118	–
N#Cc1ccc(CCNC(C(=O)Nc2ccc(C3CC3)cn2)c2ccccc2)cc1 (single isomer, unassigned) [42 Isomer 1]	53.6	–	–	333	–
CN1CCN(c2ccc(NC(=O)C(NCCc3ccc(C#N)cc3)c3ccccc3)nc2)CC1 (single isomer, unassigned) [49 Isomer 1]	79.3	–	–	48.4	–
Cn1cc(-c2cnc(NC(=O)C(NCCc3ccc(C#N)cc3)c3ccccc3)cn2)cn1 (single isomer, unassigned) [56 Isomer 1]	416	–	444	–	–
Cn1cc(-c2ccc(NC(=O)C(NCCc3ccc(F)cc3)c3ccccc3)nc2)cn1 (single isomer, unassigned) [58 Isomer 1]	40.7	–	–	82	–
Cc1cc(NC(=O)C(NC[C@@H](C)c2ccc(C#N)cc2)c2ccccc2)ncc1-c1cnn(C)c1 (single isomer, unassigned) [115 Isomer 2]	32.7	1.2	–	–	–
Cn1cc(-c2cccc(NC(=O)C(NCCc3ccc(C#N)cc3)c3ccccc3)n2)cn1 (single isomer, unassigned) [123 Isomer 1]	> 2000	2020	–	–	–
Cn1cc(-c2cccc(NC(=O)C(NCCc3ccc(C#N)cc3)c3ccccc3)n2)cn1 (single isomer, unassigned) [123 Isomer 2]	> 2000	13500	–	–	–
Cn1cc(-c2ccc3c(c2)CCN3C(=O)C(NCCc2ccc(C#N)cc2)c2ccccc2)cn1 (single isomer, unassigned) [152 Isomer 1]	966	40.6	–	–	–
Cn1cc(-c2ccc3c(c2)CCN3C(=O)C(NCCc2ccc(C#N)cc2)c2ccccc2)cn1 (single isomer, unassigned) [152 Isomer 2]	31.8	< 2	–	–	–
CN1CCN(c2ccc(NC(=O)[C@@H](NCCc3ccc(C#N)cc3)c3ccccc3)cc2)CC1 (single isomer, unassigned; isomer 1) [18 Isomer 1]	576	–	–	–	230

Other lines, results leading:

IC50 [1] [nM]	IC50 [2] [nM]	EC50 ([3]; Homo sapiens, HCT-116, 2 h) [nM]	EC50 ([3]; Homo sapiens) [nM]	EC50 [3] [nM]	Compound
26	< 2	–	19.3	–	N#Cc1ccc(CCNC(C(=O)Nc2ccc(-c3cn[nH]c3)cn2)c2ccccc2)cc1 (single isomer, unassigned) [7 Isomer 1]
15	–	–	22.9	–	Cn1cc(-c2ccc(NC(=O)C(NCCc3ccc(C#N)cc3Cl)c3ccccc3)nc2)cn1 (single isomer, unassigned) [51 Isomer 1]
19	–	–	31.5	–	Cn1cc(-c2ccc(NC(=O)C(NCCc3ccc(Cl)cc3)c3ccccc3)nc2)cn1 (single isomer, unassigned) [55 Isomer 1]
11.6	–	–	23.6	–	CC(CNC(C(=O)Nc1ccc(-c2cnn(C)c2)cc1)c1ccccc1)c1ccc(C#N)cc1 (single isomer, unassigned) [82 Isomer 4]
9.6	–	–	15.1	–	CC(CNC(C(=O)Nc1ccc(-c2cnn(C)c2)cn1)c1ccccc1)c1ccc(C#N)cc1F (single isomer, unassigned) [90 Isomer 2]
6.59	1	–	–	–	CC(CNC(C(=O)Nc1ccc(-c2cnn(C)n2)cn1)c1ccccc1)c1ccc(C#N)cc1 (single isomer, unassigned) [98 Isomer 2]
16.4	0.7	–	–	–	C[C@H](CNC(C(=O)Nc1ccc(-c2ccn(C)c(=O)c2)cn1)c1ccccc1)c1ccc(C#N)cc1 (single isomer, unassigned) [105 Isomer 2]
26.1	3.3	–	–	–	C[C@H](CNC(C(=O)Nc1ccc(C2CC(=O)N(C)C2)cn1)c1ccccc1)c1ccc(C#N)cc1 (single isomer, unassigned) [109 Isomer 4]
10.5	0.73	–	–	–	Cc1c(-c2ccc(NC(=O)C(NC[C@@H](C)c3ccc(C#N)cc3)c3ccccc3)nc2)cnn1C (single isomer, unassigned) [114 Isomer 2]
11	1.78	–	–	–	CC1CN(c2ccc(NC(=O)C(NC[C@@H](C)c3ccc(C#N)cc3)c3ccccc3)nc2)CC(=O)N1C (single isomer, unassigned) [124 Isomer 1]
14	< 3.24	–	–	–	Cc1nn(C)c(C)c1-c1ccc(NC(=O)C(NC[C@@H](C)c2ccc(C#N)cc2)c2ccccc2)nc1 (single isomer, unassigned) [130 Isomer 2]
13.3	–	–	29.1	–	C[C@H](CNC(C(=O)Nc1ccc(-c2cnn(CC(=O)N3CCCC3)c2)cn1)c1ccccc1)c1ccc(C#N)cc1 (single isomer, unassigned) [132 Isomer 2]
26	< 3.24	–	–	–	C[C@H](CNC(C(=O)Nc1ccc(-c2cnn(C)c(=O)c2)cn1)c1ccccc1)c1ccc(C#N)cc1 (single isomer, unassigned) [139 Isomer 1]
19	< 3.24	–	–	–	Cn1cc(-c2ccc(NC(=O)C(NCC(c3ccc(C#N)cc3)C(F)(F)F)c3ccccc3)nc2)cn1 (single isomer, unassigned) [149 Isomer 2]
10.2	0.74	–	–	–	(R, S)- and (S, S)-2-((2- (4- cyanophenyl)propyl)ami- no)-N-(5-(1,3-dimethyl- 1H-pyrazol-4-yl)pyridin- 2-yl)-2-phenylacetamide [113 Isomer 2]
